Measurements published in PubChem BioAssay AID2060504 (Molecular Pharmacology Branch, DTP, NCI, 2025).

Tested on: 636577-100-R-J1-PDC complex spheroid viability
Assay: Anticancer human tumor 636577-100-R-J1-PDC patient-derived endometrial adenocarcinoma cell line growth inhibition [GQUAD]
Details: for IC50: curve of first compound; for viability, T/C: stronger effect = lower value; active = viability on the fitted dose curve at most 10% of control; inactive = the rest
Method in brief: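 Tumor cells were grown as complex spheroids with HUVEC endothelial cells and mesenchymal stem cells as stroma. G-quadruplex stabilizers were combined with targeted agents over half-log dilutions from near the clinical Cmax, or from 10 microM.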

[1] = second compound 0.0316 µM, first compound 0.0316 µM
[2] = second compound 0.0316 µM, first compound 0.1 µM
[3] = second compound 0.0316 µM, first compound 0.316 µM
[4] = second compound 0.0316 µM, first compound 1 µM
[5] = second compound 0.0316 µM, first compound 3.16 µM
[6] = second compound 0.0316 µM, first compound 10 µM
[7] = second compound 0.1 µM, first compound 0.0316 µM
[8] = second compound 0.1 µM, first compound 0.1 µM
[9] = second compound 0.1 µM, first compound 0.316 µM
[10] = second compound 0.1 µM, first compound 1 µM
[11] = second compound 0.1 µM, first compound 3.16 µM
[12] = second compound 0.1 µM, first compound 10 µM
[13] = second compound 0.316 µM, first compound 0.0316 µM
[14] = second compound 0.316 µM, first compound 0.1 µM
[15] = second compound 0.316 µM, first compound 0.316 µM
[16] = second compound 0.316 µM, first compound 1 µM
[17] = second compound 0.316 µM, first compound 3.16 µM
[18] = second compound 0.316 µM, first compound 10 µM
[19] = second compound 1 µM, first compound 0.0316 µM
[20] = second compound 1 µM, first compound 0.1 µM
[21] = second compound 1 µM, first compound 0.316 µM
[22] = second compound 1 µM, first compound 1 µM
[23] = second compound 1 µM, first compound 3.16 µM
[24] = second compound 1 µM, first compound 10 µM
[25] = second compound 3.16 µM, first compound 0.0316 µM
[26] = second compound 3.16 µM, first compound 0.1 µM
[27] = second compound 3.16 µM, first compound 0.316 µM
[28] = second compound 3.16 µM, first compound 1 µM
[29] = second compound 3.16 µM, first compound 3.16 µM
[30] = second compound 3.16 µM, first compound 10 µM
[31] = second compound 10 µM, first compound 0.0316 µM
[32] = second compound 10 µM, first compound 0.1 µM
[33] = second compound 10 µM, first compound 0.316 µM
[34] = second compound 10 µM, first compound 1 µM
[35] = second compound 10 µM, first compound 3.16 µM
[36] = second compound 10 µM, first compound 10 µM
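Also: viability read after seven days of drug exposure.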
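For viability, T/C in this document: luminescence signal used as a proxy for viable cells; 100% = DMSO vehicle control wells.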

O=c1[nH]cc(F)c(=O)[nH]1 + Cc1cnc(CNC(=O)c2c(=O)c3ccc(N4CCCN(C)CC4)nc3n3c2sc2ccccc23)cn1
inactive: viability, T/C [1] 47.8% | viability, T/C [2] 45.1% | viability, T/C [3] 49.7% | viability, T/C [4] 39.9% | viability, T/C [5] 36.7% | viability, T/C [6] 21.3% | viability, T/C [7] 28.9% | viability, T/C [8] 26.9% | viability, T/C [9] 27.6% | viability, T/C [10] 25.9% | viability, T/C [11] 25.5% | viability, T/C [12] 18.4% | viability, T/C [13] 24.2% | viability, T/C [14] 23.3% | viability, T/C [15] 17.6% | viability, T/C [16] 21.9% | viability, T/C [17] 22.2% | viability, T/C [18] 16.6% | viability, T/C [19] 21.3% | viability, T/C [20] 21.1% | viability, T/C [21] 19.7% | viability, T/C [22] 23% | viability, T/C [23] 21.1% | viability, T/C [24] 20.1% | viability, T/C [25] 20% | viability, T/C [26] 19.5% | viability, T/C [27] 21.8% | viability, T/C [28] 24.1% | viability, T/C [29] 21% | viability, T/C [30] 22% | viability, T/C [31] 17.7% | viability, T/C [32] 17.9% | viability, T/C [33] 18% | viability, T/C [34] 18.7% | viability, T/C [35] 20.4% | viability, T/C [36] 20.1%
< 31.6 nM: IC50 (second compound 0.0316 µM) | IC50 (second compound 0.1 µM) | IC50 (second compound 0.316 µM) | IC50 (second compound 1 µM) | IC50 (second compound 3.16 µM) | IC50 (second compound 10 µM)

Cc1[nH]c2ccccc2c1CCNCc1ccc(/C=C/C(=O)NO)cc1 + Cc1cnc(CNC(=O)c2c(=O)c3ccc(N4CCCN(C)CC4)nc3n3c2sc2ccccc23)cn1
< 0.999 nM: IC50 (second compound 0.0316 µM) | IC50 (second compound 0.1 µM) | IC50 (second compound 0.316 µM) | IC50 (second compound 1 µM) | IC50 (second compound 3.16 µM) | IC50 (second compound 10 µM)
inactive: viability, T/C (second compound 0.0316 µM, first compound 0.000999 µM) 49.7% | viability, T/C (second compound 0.0316 µM, first compound 0.00316 µM) 28.9% | viability, T/C (second compound 0.0316 µM, first compound 0.00999 µM) 20.8% | viability, T/C [1] 12.3% | viability, T/C (second compound 0.1 µM, first compound 0.000999 µM) 32.3% | viability, T/C (second compound 0.1 µM, first compound 0.00316 µM) 22.8% | viability, T/C (second compound 0.1 µM, first compound 0.00999 µM) 24.6% | viability, T/C [7] 12.8% | viability, T/C (second compound 0.316 µM, first compound 0.000999 µM) 26.1% | viability, T/C (second compound 0.316 µM, first compound 0.00316 µM) 24.2% | viability, T/C (second compound 0.316 µM, first compound 0.00999 µM) 18.9% | viability, T/C [13] 13.2% | viability, T/C (second compound 0.316 µM, first compound 0.0999 µM) 9.48% | viability, T/C (second compound 1 µM, first compound 0.000999 µM) 21.1% | viability, T/C (second compound 1 µM, first compound 0.00316 µM) 20.9% | viability, T/C (second compound 1 µM, first compound 0.00999 µM) 18.7% | viability, T/C [19] 11.1% | viability, T/C (second compound 3.16 µM, first compound 0.000999 µM) 20.2% | viability, T/C (second compound 3.16 µM, first compound 0.00316 µM) 23.3% | viability, T/C (second compound 3.16 µM, first compound 0.00999 µM) 21.2% | viability, T/C [25] 12.3% | viability, T/C (second compound 3.16 µM, first compound 0.0999 µM) 10.4% | viability, T/C (second compound 10 µM, first compound 0.000999 µM) 22.6% | viability, T/C (second compound 10 µM, first compound 0.00316 µM) 24.1% | viability, T/C (second compound 10 µM, first compound 0.00999 µM) 20.1% | viability, T/C [31] 11.8%
active: viability, T/C (second compound 0.0316 µM, first compound 0.0999 µM) 6.33% | viability, T/C [3] 8.17% | viability, T/C (second compound 0.1 µM, first compound 0.0999 µM) 6.63% | viability, T/C [9] 8.31% | viability, T/C [15] 8.5% | viability, T/C (second compound 1 µM, first compound 0.0999 µM) 8.25% | viability, T/C [21] 8.1% | viability, T/C [27] 5.1% | viability, T/C (second compound 10 µM, first compound 0.0999 µM) 12.2% | viability, T/C [33] 0.15%

O=C(NO)c1cnc(N2CCN(S(=O)(=O)c3ccc4ccccc4c3)CC2)nc1 + Cc1[nH]c2ccc(F)cc2c1-c1nc2c3cccnc3c3ncccc3c2[nH]1
46.3 nM: IC50 (second compound 1 µM)
< 31.6 nM: IC50 (second compound 3.16 µM) | IC50 (second compound 10 µM)
57.7 nM: IC50 (second compound 0.1 µM)
51.2 nM: IC50 (second compound 0.0316 µM)
inactive: viability, T/C [1] 69.7% | viability, T/C [2] 21.1% | viability, T/C [7] 68.2% | viability, T/C [8] 33.2% | viability, T/C [9] 15.2% | viability, T/C [13] 60.2% | viability, T/C [14] 31.4% | viability, T/C [15] 17.2% | viability, T/C [19] 60.2% | viability, T/C [20] 29% | viability, T/C [21] 16.6% | viability, T/C [25] 25.8% | viability, T/C [26] 19.7% | viability, T/C [27] 17.1% | viability, T/C [31] 29.5% | viability, T/C [32] 22.4% | viability, T/C [33] 14.3%
active: viability, T/C [3] 11.5% | viability, T/C [4] 7.28% | viability, T/C [5] 0.23% | viability, T/C [6] 0.1% | viability, T/C [10] 5.55% | viability, T/C [11] 0.5% | viability, T/C [12] 0.09% | viability, T/C [16] 7.41% | viability, T/C [17] 1% | viability, T/C [18] 0.08% | viability, T/C [22] 6.03% | viability, T/C [23] 1.47% | viability, T/C [24] 0.08% | viability, T/C [28] 7.07% | viability, T/C [29] 2.05% | viability, T/C [30] 0.09% | viability, T/C [34] 6.09% | viability, T/C [35] 2.61% | viability, T/C [36] 0.11%
47.6 nM: IC50 (second compound 0.316 µM)
